The values below come from ChEMBL document CHEMBL3046034, “Enzyme inhibitors to increase poly-3-hydroxybutyrate production by transgenic tobacco” (2002).

Calls of active or inactive are those of the source. The rule behind the calls is not given here.

The test system of experiment [1] is Nicotiana tabacum. Briefly: Increase of poly-3-hydroxybutyrate production in BC3 transgenic Nicotiana tabacum (tobacco) plastids at 10 uM sprayed on five-leaf stage plant once in a week measured after 2 weeks relative to control. It is filed as functional, organism-based.
In experiment [2] the test system is Nicotiana tabacum. Kind of experiment: Increase of poly-3-hydroxybutyrate production in rCAB8 transgenic Nicotiana tabacum (tobacco) plastids at 0.1 to 10 uM sprayed on five-leaf stage plant once in a week measured after 2 weeks relative to control. It is filed as functional, organism-based.
In experiment [3] the test system is Nicotiana tabacum. Briefly: Increase of poly-3-hydroxybutyrate production in BC3 transgenic Nicotiana tabacum (tobacco) plastids at 1 uM sprayed on five-leaf stage plant once in a week measured after 2 weeks relative to control. It is filed as functional.
In experiment [4] the test system is Nicotiana tabacum. Kind of experiment: Increase of poly-3-hydroxybutyrate production in rCAB8 transgenic Nicotiana tabacum (tobacco) at 50 uM sprayed on five-leaf stage plant once in a week measured after 2 weeks relative to control. It is filed as functional.
The subject of experiment [5] is Nicotiana tabacum. Kind of experiment: Increase of poly-3-hydroxybutyrate production in rCAB8 transgenic Nicotiana tabacum (tobacco) at 50 uM sprayed on five-leaf stage plant once in a week measured after 1 week relative to control. It is filed as functional.
In experiment [6] the test system is Nicotiana tabacum. Briefly: Increase of PHA synthase level in BC3 transgenic Nicotiana tabacum (tobacco) at 10 uM sprayed on five leaf stage plant once in a week measured after 2 weeks by immunoblot analysis. It is filed as functional, organism-based. For orientation: In western blotting, separated proteins are transferred to a membrane and probed.
For experiment [7], the system named is Nicotiana tabacum. Briefly: Increase of poly-3-hydroxybutyrate production in BC3 transgenic Nicotiana tabacum (tobacco) at 10 uM sprayed on five-leaf stage plant once in a week measured after 1 week relative to control. It is filed as functional.
Experiment [8] relates to Nicotiana tabacum. Briefly: Increase of poly-3-hydroxybutyrate production in rCAB8 transgenic Nicotiana tabacum (tobacco) plastids at 50 uM sprayed on five-leaf stage plant once in a week measured after 2 weeks relative to cytosol. It is filed as functional.
Experiment [9] has as its system Nicotiana tabacum. Kind of experiment: Increase of leaf dry weight in BC3 transgenic Nicotiana tabacum (tobacco) sprayed on five-leaf stage plant once in a week measured after 2 weeks. It is filed as functional, organism-based.
The subject of experiment [10] is Nicotiana tabacum. Kind of experiment: Increase of poly-3-hydroxybutyrate production in BC3 transgenic Nicotiana tabacum (tobacco) at 10 uM sprayed on five leaf stage plant once in a week measured after 2 weeks relative to control. It is filed as functional.
Experiment [11] deals with Nicotiana tabacum. Briefly: Increase of poly-3-hydroxybutyrate production in BC3 transgenic Nicotiana tabacum (tobacco) at 2 to 50 uM sprayed on five-leaf stage plant once in a week measured after 2 weeks relative to control. It is filed as functional.
In experiment [12] the test system is Nicotiana tabacum. Briefly: Increase of leaf dry weight in rCAB8 transgenic Nicotiana tabacum (tobacco) at 10 to 250 uM sprayed on five leaf stage plant once in a week measured after 2 weeks. It is filed as functional, organism-based.
Experiment [13] has as its system Nicotiana tabacum. Briefly: Increase of poly-3-hydroxybutyrate production in BC3 transgenic Nicotiana tabacum (tobacco) plastids at 10 uM sprayed on five-leaf stage plant once in a week measured after 2 weeks relative to cytosol. It is filed as functional.
The subject of experiment [14] is Nicotiana tabacum. Briefly: Increase of PHA synthase level in rCAB8 transgenic Nicotiana tabacum (tobacco) at 50 uM sprayed on five leaf stage plant once in a week measured after 2 weeks by immunoblot analysis. It is filed as functional, organism-based.
The subject of experiment [15] is Nicotiana tabacum. Briefly: Increase of leaf dry weight in BC3 transgenic Nicotiana tabacum (tobacco) at 10 uM sprayed on five leaf stage plant once in a week measured after 1 week. It is filed as functional, organism-based.

For the compound `CC[C@H](C)C(=O)O[C@H]1CCC=C2C=C[C@H](C)[C@H](CC[C@@H]3C[C@@H](O)CC(=O)O3)[C@H]21` [MEVASTATIN], the outcome in the experiment with Nicotiana tabacum [1] was inactive. In addition, in the experiment on Nicotiana tabacum [2], the result was Active. Besides, the Activity in the experiment with Nicotiana tabacum [3] worked out at 192%.
`CC(Oc1ccc(Oc2cnc3cc(Cl)ccc3n2)cc1)C(=O)O` (stereo not given) [QUIZALOFOP]: the Activity is 150% in the experiment on Nicotiana tabacum [4]; 120% in the experiment on Nicotiana tabacum [5]; 150% in the experiment with Nicotiana tabacum [7]; “Dose-dependent effect” with Nicotiana tabacum [9]; 170% in the experiment with Nicotiana tabacum [10]; 170% with Nicotiana tabacum [11]. The outcome in the experiment with Nicotiana tabacum [6], in the experiment on Nicotiana tabacum [12], in the experiment with Nicotiana tabacum [14] and in the experiment on Nicotiana tabacum [15] was Active. Also, the “fold change (FC)” value with Nicotiana tabacum [8] and with Nicotiana tabacum [13] was 2.5 each time.
